From patent US11912787B2, “Peptide for skin aging prevention and wrinkle reduction, and composition comprising same” (DERMAFIRM, INC., priority 2019, dated 2024)
Read-outs that look alike come from different tables or passages of the source. Residues, ends and D or L forms follow the SMILES beside them. *: point of attachment. Palmitoyl = CCCCCCCCCCCCCCCC(=O)*

Tested on: Fibroblasts
Experiment: MTT cytotoxicity assay
Assay type: cell-based
Experimental: In order to examine the cytotoxicity of the novel peptides (GHK-R4 (SEQ ID NO.: 3) and Pal-GHK-R4 (SEQ ID NO.: 4)) according to the Examples of the present invention, MTT assay was performed. As a control, GHK-acetate was used. Fibroblasts were treated with various concentrations of each of the control and the novel peptides, and after 24 hours, treated with MTT reagent. Next, the absorbance was measured, and the viability of the cells was calculated based on the absorbance.

Which “IC30 (cell viability, MTT)” value does the source give for `NCCCC[C@H](NC(=O)[C@H](Cc1cnc[nH]1)NC(=O)CN)C(=O)O` [GHK-acetate, glycine-histidyl-lysine tripeptide, reference compound] (H-Gly-His-Lys-OH) here?
Its value is “about 31.71 mM”.

With `CCCCCCCCCCCCCCCC(=O)NCC(=O)N[C@@H](Cc1c[nH]cn1)C(=O)N[C@@H](CCCCN)C(=O)N[C@@H](CCCNC(=N)N)C(=O)N[C@@H](CCCNC(=N)N)C(=O)N[C@@H](CCCNC(=N)N)C(=O)N[C@@H](CCCNC(=N)N)C(=O)O` [Pal-GHK-R4, Pal-GlyHisLys-ArgArgArgArg-OH] (Palmitoyl-GHKRRRR-OH) as the molecule, how does the “IC30 (cell viability, MTT)” value read?
Its value is ~8.70 µM.

With “H-GHKRRRR-OH [GHK-R4, H-GlyHisLys-ArgArgArgArg-OH]” as the molecule, how does the “IC30 (cell viability, MTT)” value (fibroblasts, 24 hours treatment) read?
The value was ~5320 µM.
